Test results reported in PMC11274883, “Anticancer Effect of Pt^[sequence], Pt^II5MESS, Pt^II56MESS and Their Platinum(IV)-Dihydroxy Derivatives against Triple-Negative Breast Cancer and Cisplatin-Resistant Colorectal Cancer” (Cancers, 2024).

Experiments:
Assay type in all cases: cell-based
[1] = system: MCF10A; assay: WST-1 cytotoxicity, 72 h; settings: mean ± SEM
Procedure: Cells were seeded in 96-well flat-bottom culture plates at a concentration of 1000 cells per well. […] After 72 h, the medium was removed and replaced with new medium. The cell viability reagent WST-1 (10 µL, Roche Diagnostics, Indianapolis, IN, USA) was added to each well. After an hour, the absorbance was measured at 450 nm using a versatile microplate reader (Bio-strategy, Campbellfield, VIC, Australia). Three separate experiments were performed, each with n = 3 replicates. GraphPad prism 10 was used to calculate apparent IC50 values using the nonlinear regression model Y = Bottom + (Top-Bottom)/(1 + 10^(X-LogIC50)) where Top and bottom are plateaus in the y-axis (% survival). The R^2 value of the curve fits ranged from 0.8972 to 0.9794.

[2] = system: MDA−MB−231 cells; assay: DCFDA cellular ROS detection assay; settings: complexes at IC50, TBHP 20 µM
Procedure: (§1) DCFDA/H2DCFDA-cellular ROS Assay Kit (Abcam, Cambridge, MA, USA) was used to investigate the production of ROS in treated cells, as previously described. MDA−MB−231 or HT29 cells were seeded at a total concentration of 2500 cells/well in 96-well plates and incubated overnight. DMEM was then removed, and cells washed with 1× kit buffer, and stained with 25 µM 2′,7′-dichlorofluorescein diacetate (DCFH-DA) for 45 min. […] After that, the plates were scanned using the Glo-Max®-Multimode microplate reader (Promega Corporation, Alexandra, VIC, Australia) at an excitation/emission of 485/535 nm to detect fluorescence (relative fluorescence units, or RFU) at various time points. A positive control was generated using 20 µM tert-butyl hydroperoxide (TBHP), and the same procedure was applied with DCFDA. Three independent experiments in triplicates were implemented.

[3] = system: HT29 cells; assay: DCFDA cellular ROS detection assay; settings: complexes at IC50, TBHP 20 µM
Procedure: as §1

[4] = system: MDA−MB−231 cells; assay: Western blot protein expression; settings: MDA−MB−231, IC50, 72 h
Procedure: (§2) Protein extraction was then performed on ice. Media were collected in Eppendorf tubes, and centrifuged at 500× g for 5 min at 4 °C. Meanwhile, 200 µL of lysis RIPA buffer, made up of 150 mM NaCl, 50 mM Tris-HCl, pH 8.0, 0.1% Triton X-100, 0.5% sodium deoxycholate, 0.1% SDS and 1 mM sodium orthovanadate, was added to each well, the cells were scrapped into the buffer, and added to the media-derived pellets. The tubes were placed on the shaker for 10 min at 4 °C. Then, cell extracts were centrifuged at 12,000× g for 15 min at 4 °C, and the supernatants (containing the proteins) were collected. The Bio-Rad-DC protein assay (Bio-Rad, Hercules, CA, USA) was used to assess protein content. Laemmli protein sample buffer (4×) with β-mercaptoethanol (9%) was used to prepare a final protein concentration of 20 µg. The samples were then heated at 100 °C for 5 min. A final volume of 30 µL of each sample was added per well and subjected to SDS-PAGE using Bolt 4–12% Bis-Tris gel (Thermo Fisher, Eugene, OR, USA) at 80 V for 30 min and then 120 V for 60 min with PageRuler™ Prestained Protein or SeeBlue Prestained Protein Ladder (Thermo Fisher, Eugene, OR, USA). Proteins were subsequently transferred to a 0.2 µm PVDF membrane (Amersham, Cytiya) using a semi-dry blot transfer. The membrane was then blocked in 5% BSA in TBST, for 1 h and probed overnight at 4 °C with primary antibodies against several cell proliferation, apoptotic, anti-apoptotic, microtubule and autophagic protein markers listed in Table S7 as per the manufacturer’s protocol. The primary antibody was then removed, washed three times for 10 min with TBST and then membranes were treated with either mouse or rabbit HRP-coupled secondary antibodies (1/3000) for 1 h and 30 min. Protein band detection was then performed using the chemiluminescence ECL kit (Thermo Fisher, Eugene, OR, USA). Blot images were obtained using the Odyssey® FC imaging system (LI-COR Biosciences, Lincoln, NE, USA) and band intensities were quantified relatively to glyceraldehyde-3-phosphate dehydrogenase (GAPDH) and then normalised each replicate gel to its corresponding no treatment control using the ImageJ v1.53t software (National Institutes of Health, Bethesda, MD, USA). Each marker results from the same experiment or parallel experiment where the gels were processed in parallel. Three independent experiments per marker were conducted.

[5] = system: HT29 cells; assay: Western blot protein expression; settings: HT29, IC50, 72 h
Procedure: as §2

[6] = representative blot Figure S30G
[7] = representative blot Figure S30H

## Cc1c(C)c2cccnc2c2ncccc12.N[C@H]1CCCC[C@@H]1N.O=[N+]([O-])[O-].O=[N+]([O-])[O-].[Pt+2] [Pt^II56MESS, [Pt(5,6-dimethyl-1,10-phenanthroline)(1S,2S-diaminocyclohexane)](NO3)2]
[1]
  IC50: 410 nM
[2]; MDA−MB−231, 24 h
  ROS production: 338.49 RFU
[2]; MDA−MB−231, 48 h
  ROS production: 418.08 RFU
[2]; MDA−MB−231, 72 h
  ROS production: 446.09 RFU
[3]; HT29, 24 h
  ROS production: 321.56 RFU
[3]; HT29, 48 h
  ROS production: 433.67 RFU
[3]; HT29, 72 h
  ROS production: 453.89 RFU
[4]; representative blot Figure S24A
  β-actin/GAPDH normalized to control (1): 0.5956
[4]; representative blot Figure S24B
  β-tubulin/GAPDH normalized to control (1): 0.5978
[4]; representative blot Figure S24C
  α-tubulin/GAPDH normalized to control (1): 0.7887
[4]; representative blot Figure S25A
  p-AKT/AKT/GAPDH normalized to control (1): 0.5229
[4]; representative blot Figure S25B
  p-ERK/ERK/GAPDH normalized to control (1): 0.06081
[4]; representative blot Figure S25C
  p53/GAPDH normalized to control (1): 0.6187
[4]; representative blot Figure S25D
  p21/GAPDH normalized to control (1): 2.6
[4]; representative blot Figure S26A
  Bax/GAPDH normalized to control (1): 1.276
[4]; representative blot Figure S26B
  Bcl2/GAPDH normalized to control (1): 0.6846
[4]; representative blot Figure S26C
  Cytochrome C/GAPDH normalized to control (1): 3.109
[4]; representative blot Figure S26D
  Procaspase 8/GAPDH normalized to control (1): 0.3584
[4]; representative blot Figure S26E
  Cleaved BID/GAPDH normalized to control (1): 14.74
[4]; representative blot Figure S26F
  Procaspase 9/GAPDH normalized to control (1): 0.4755
[4]; representative blot Figure S26G
  Procaspase 3/GAPDH normalized to control (1): 0.4243
[4]; representative blot Figure S26H
  PARP-1/GAPDH normalized to control (1): 0.634
[4]; representative blot Figure S27A
  Beclin1/GAPDH normalized to control (1): 3.15
[4]; representative blot Figure S27B
  ATG5/GAPDH normalized to control (1): 0.4012
[4]; representative blot Figure S27C
  ATG16L1/GAPDH normalized to control (1): 0.5726
[4]; representative blot Figure S27D
  ATG9A/GAPDH normalized to control (1): 0.2848
[4]; representative blot Figure S27E
  ATG4B/GAPDH normalized to control (1): 2.107
[4]; representative blot Figure S27F
  LC3B/GAPDH normalized to control (1): 0.8478
[5]; representative blot Figure S28A
  β-actin/GAPDH normalized to control (1): 0.4943
[5]; representative blot Figure S28B
  β-tubulin/GAPDH normalized to control (1): 0.2182
[5]; representative blot Figure S28C
  α-tubulin/GAPDH normalized to control (1): 0.04906
[5]; representative blot Figure S29A
  p-AKT/AKT/GAPDH normalized to control (1): 0.5359
[5]; representative blot Figure S29B
  p-ERK/ERK/GAPDH normalized to control (1): 0.8325
[5]; representative blot Figure S29C
  p53/GAPDH normalized to control (1): 1.014
[5]; representative blot Figure S29D
  p21/GAPDH normalized to control (1): 1.281
[5]; representative blot Figure S30A
  Bax/GAPDH normalized to control (1): 2.693
[5]; representative blot Figure S30B
  Bcl2/GAPDH normalized to control (1): 0.04576
[5]; representative blot Figure S30C
  Cyt C/GAPDH normalized to control (1): 6.706
[5]; representative blot Figure S30D
  Procaspase 8/GAPDH normalized to control (1): 0.2505
[5]; representative blot Figure S30E
  Cleaved BID/GAPDH normalized to control (1): 2.821
[5]; representative blot Figure S30F
  Procaspase 9/GAPDH normalized to control (1): 0.2717
[5]; [6]
  Cleaved caspase 3/GAPDH normalized to control (1): 5.099
  Procaspase 3/GAPDH normalized to control (1): 0.8936
[5]; [7]
  Cleaved PARP-1/GAPDH normalized to control (1): 7.064
  PARP-1/GAPDH normalized to control (1): 0.317
[5]; representative blot Figure S31A
  Beclin1/GAPDH normalized to control (1): 5.632
[5]; representative blot Figure S31B
  ATG5/GAPDH normalized to control (1): 0.6185
[5]; representative blot Figure S31C
  ATG16L1/GAPDH normalized to control (1): 1.309
[5]; representative blot Figure S31D
  ATG9A/GAPDH normalized to control (1): 1.516
[5]; representative blot Figure S31E
  ATG4B/GAPDH normalized to control (1): 0.7106
[5]; representative blot Figure S31F
  LC3B/GAPDH normalized to control (1): 1.044
